Data from ChEMBL document CHEMBL6134838, “Discovery of c-Kit as a New Therapeutic Target in LPS-Induced Acute Lung Injury through Novel Phenylamide Derivative D9” (J Med Chem, 2025).

Tested on: J774.A1
Test: cells
Conditions: Mus musculus, J774.A1, 24 h
Description: Antiinflammatory activity against mouse J774.A1 cells assessed as inhibition of LPS-stimulated IL-6 release measured for 24 hrs by ELISA method

**Q.** With O=C(NCCCN1CCOCC1)c1cc(Oc2ccc(NC(=O)c3cn(-c4ccc(Br)cc4)c4ccccc4c3=O)cc2F)ccn1 as the molecule, how does the IC50 read?
**A.** 6.16 µM

Tested on: not listed separately
Test: Cytotoxicity against mouse J774.A1 cells assessed as survival rate at 10 uM measured for 48 hrs by MTT assay relative to control
Conditions: not given

**Q.** With COc1ccc(-n2cc(C(=O)Nc3ccc(Oc4ccnc(C(=O)NCCc5cccs5)c4)c(F)c3)c(=O)c3ccccc32)cc1 as the molecule, how does the viability at 48 h, 10 µM read?
**A.** 85.3%

**Q.** For O=C(NCCc1cccs1)c1cc(Oc2ccc(NC(=O)c3cn(-c4ccc(Cl)cc4)c4ccccc4c3=O)cc2F)ccn1, which viability at 48 h, 10 µM is on record?
**A.** 7.46%

**Q.** Which viability at 48 h, 10 µM does the source give for O=C(NCCCN1CCOCC1)c1cc(Oc2ccc(NC(=O)c3cn(-c4ccc(F)cc4)c4ccccc4c3=O)cc2F)ccn1 here?
**A.** 94.1%

**Q.** For O=C(NCCCN1CCOCC1)c1cc(Oc2ccc(NC(=O)c3cn(-c4ccc(Br)cc4)c4ccccc4c3=O)cc2F)ccn1, which viability at 48 h, 10 µM is on record?
**A.** 91.3%

**Q.** For O=C(NCCCN1CCOCC1)c1cc(Oc2ccc(NC(=O)c3cn(-c4ccc(F)c(Cl)c4)c4ccccc4c3=O)cc2F)ccn1, which viability at 48 h, 10 µM is on record?
**A.** > 100%

**Q.** For O=C(NCCc1cccs1)c1cc(Oc2ccc(NC(=O)c3cn(-c4ccc(Br)cc4F)c4ccccc4c3=O)cc2F)ccn1, which viability at 48 h, 10 µM is on record?
**A.** 97.1%

**Q.** With O=C(NCCc1cccs1)c1cc(Oc2ccc(NC(=O)c3cn(-c4ccc(F)c(Cl)c4)c4ccccc4c3=O)cc2)ccn1 as the molecule, how does the viability at 48 h, 10 µM read?
**A.** > 100%

**Q.** Which viability at 48 h, 10 µM does the source give for O=C(NCCCN1CCOCC1)c1cc(Oc2ccc(NC(=O)c3cn(-c4ccccc4)c4ccccc4c3=O)cc2)ccn1 here?
**A.** 82.7%

**Q.** Which viability at 48 h, 10 µM does the source give for COc1ccc(-n2cc(C(=O)Nc3ccc(Oc4ccnc(C(=O)NCCc5cccs5)c4)cc3)c(=O)c3ccccc32)cc1 here?
**A.** 88.3%

**Q.** For O=C(NCCCN1CCOCC1)c1cc(Oc2ccc(NC(=O)c3cn(-c4ccc(Br)cc4F)c4ccccc4c3=O)cc2)ccn1, which viability at 48 h, 10 µM is on record?
**A.** 92.2%

**Q.** With O=C(NCCc1cccs1)c1cc(Oc2ccc(NC(=O)c3cn(-c4ccc(Br)cc4F)c4ccccc4c3=O)cc2)ccn1 as the molecule, how does the viability at 48 h, 10 µM read?
**A.** 92.8%

**Q.** Which viability at 48 h, 10 µM does the source give for O=C(NCCCN1CCOCC1)c1cc(Oc2ccc(NC(=O)c3cn(-c4ccc(F)cc4)c4ccccc4c3=O)cc2)ccn1 here?
**A.** 87.1%

**Q.** For O=C(NCCc1cccs1)c1cc(Oc2ccc(NC(=O)c3cn(-c4ccc(Cl)cc4)c4ccccc4c3=O)cc2)ccn1, which viability at 48 h, 10 µM is on record?
**A.** 86.2%

**Q.** For COc1ccc(-n2cc(C(=O)Nc3ccc(Oc4ccnc(C(=O)NCCCN5CCOCC5)c4)cc3)c(=O)c3ccccc32)cc1, which viability at 48 h, 10 µM is on record?
**A.** 87%

**Q.** Which viability at 48 h, 10 µM does the source give for O=C(NCCCN1CCOCC1)c1cc(Oc2ccc(NC(=O)c3cn(-c4ccc(Cl)cc4)c4ccccc4c3=O)cc2)ccn1 here?
**A.** > 100%

**Q.** With O=C(NCCCN1CCOCC1)c1cc(Oc2ccc(NC(=O)c3cn(-c4ccccc4)c4ccccc4c3=O)cc2F)ccn1 as the molecule, how does the viability at 48 h, 10 µM read?
**A.** 83.2%

**Q.** With O=C(NCCc1cccs1)c1cc(Oc2ccc(NC(=O)c3cn(-c4ccc(F)cc4)c4ccccc4c3=O)cc2F)ccn1 as the molecule, how does the viability at 48 h, 10 µM read?
**A.** > 100%

**Q.** Which viability at 48 h, 10 µM does the source give for O=C(NCCCN1CCOCC1)c1cc(Oc2ccc(NC(=O)c3cn(-c4ccc(Br)cc4)c4ccccc4c3=O)cc2)ccn1 here?
**A.** > 100%

**Q.** For COc1cc(/C=C/C(=O)CC(=O)/C=C/c2ccc(O)c(OC)c2)ccc1O [CURCUMIN], which viability at 48 h, 10 µM is on record?
**A.** 94.9%

**Q.** Which viability at 48 h, 10 µM does the source give for O=C(NCCc1cccs1)c1cc(Oc2ccc(NC(=O)c3cn(-c4ccccc4)c4ccccc4c3=O)cc2)ccn1 here?
**A.** 72%

**Q.** Which viability at 48 h, 10 µM does the source give for O=C(NCCCN1CCOCC1)c1cc(Oc2ccc(NC(=O)c3cn(-c4ccc(Br)cc4F)c4ccccc4c3=O)cc2F)ccn1 here?
**A.** 90.7%

**Q.** Which viability at 48 h, 10 µM does the source give for O=C(NCCc1cccs1)c1cc(Oc2ccc(NC(=O)c3cn(-c4ccccc4)c4ccccc4c3=O)cc2F)ccn1 here?
**A.** 99.8%

**Q.** With COc1ccc(-n2cc(C(=O)Nc3ccc(Oc4ccnc(C(=O)NCCCN5CCOCC5)c4)c(F)c3)c(=O)c3ccccc32)cc1 as the molecule, how does the viability at 48 h, 10 µM read?
**A.** 22.9%

**Q.** For O=C(NCCc1cccs1)c1cc(Oc2ccc(NC(=O)c3cn(-c4ccc(Br)cc4)c4ccccc4c3=O)cc2F)ccn1, which viability at 48 h, 10 µM is on record?
**A.** 84.3%

**Q.** For O=C(NCCc1cccs1)c1cc(Oc2ccc(NC(=O)c3cn(-c4ccc(F)c(Cl)c4)c4ccccc4c3=O)cc2F)ccn1, which viability at 48 h, 10 µM is on record?
**A.** 77.7%

**Q.** With O=C(NCCCN1CCOCC1)c1cc(Oc2ccc(NC(=O)c3cn(-c4ccc(F)c(Cl)c4)c4ccccc4c3=O)cc2)ccn1 as the molecule, how does the viability at 48 h, 10 µM read?
**A.** > 100%

**Q.** With O=C(NCCc1cccs1)c1cc(Oc2ccc(NC(=O)c3cn(-c4ccc(Br)cc4)c4ccccc4c3=O)cc2)ccn1 as the molecule, how does the viability at 48 h, 10 µM read?
**A.** 84.4%

**Q.** Which viability at 48 h, 10 µM does the source give for O=C(NCCCN1CCOCC1)c1cc(Oc2ccc(NC(=O)c3cn(-c4ccc(Cl)cc4)c4ccccc4c3=O)cc2F)ccn1 here?
**A.** 77.8%
